Legend:
Experiment in all cases: NCI 60 cell panel SRB screen
[1] = tested on: KM12; format: cell-based; settings: Homo sapiens; KM12, single dose 10 μM; read-out: percent cell growth promotion
[2] = tested on: MDA-MB 231/ATCC; format: cell-based; settings: Homo sapiens, MDA-MB-231, read-out: percent cell growth promotion
[3] = tested on: MALME-3M; format: cell-based; settings: Homo sapiens, Malme-3M, read-out: percent cell growth promotion
[4] = tested on: UACC-62; format: cell-based; settings: Homo sapiens, UACC-62, read-out: percent cell growth promotion
[5] = tested on: PC-3; format: cell-based; settings: Homo sapiens; PC-3, single dose 10 μM; read-out: percent cell growth promotion
[6] = tested on: HL-60(TB); format: cell-based; settings: Homo sapiens, single dose 10 μM, read-out: percent cell growth promotion
[7] = tested on: NCI-H23; format: cell-based; settings: Homo sapiens; NCI-H23, single dose 10 μM; read-out: percent cell growth promotion
[8] = tested on: SK-OV-3; format: cell-based; settings: Homo sapiens; SK-OV-3, single dose 10 μM; read-out: percent cell growth promotion
[9] = tested on: 786-0; format: cell-based; settings: Homo sapiens; 786-0, single dose 10 μM; read-out: percent cell growth promotion
[10] = tested on: HCT-116; format: cell-based; settings: Homo sapiens; HCT-116, single dose 10 μM; read-out: percent cell growth promotion
[11] = tested on: CCRF-CEM; format: cell-based, human; settings: Homo sapiens, single dose 10 μM, read-out: percent cell growth promotion
[12] = tested on: SK-MEL-5; format: cell-based; settings: Homo sapiens, SK-MEL-5, read-out: percent cell growth promotion
[13] = tested on: U251; format: cell-based; settings: Homo sapiens, U-251; U251, single dose 10 μM; read-out: percent cell growth promotion
[14] = tested on: SK-MEL-28; format: cell-based; settings: Homo sapiens, SK-MEL-28, read-out: percent cell growth promotion
[15] = tested on: RPMI-8226; format: cell-based; settings: Homo sapiens; RPMI-8226, single dose 10 μM; read-out: percent cell growth promotion
[16] = tested on: SW-620; format: cell-based; settings: Homo sapiens; SW-620, single dose 10 μM; read-out: percent cell growth promotion
[17] = tested on: NCI-H460; format: cell-based; settings: Homo sapiens; NCI-H460, single dose 10 μM; read-out: percent cell growth promotion
[18] = tested on: SN12C; format: cell-based; settings: Homo sapiens, single dose 10 μM, read-out: percent cell growth promotion
[19] = tested on: HOP-62; format: cell-based; settings: Homo sapiens; HOP-62, single dose 10 μM; read-out: percent cell growth promotion
[20] = tested on: UACC-257; format: cell-based; settings: Homo sapiens, UACC-257, read-out: percent cell growth promotion
[21] = tested on: HS 578T; format: cell-based; settings: Homo sapiens, Hs-578T, read-out: percent cell growth promotion
[22] = tested on: BT-549; format: cell-based; settings: Homo sapiens, BT-549, read-out: percent cell growth promotion
[23] = tested on: SR; format: cell-based; settings: Homo sapiens, single dose 10 μM, read-out: percent cell growth promotion
[24] = tested on: ACHN; format: cell-based; settings: Homo sapiens, single dose 10 μM, read-out: percent cell growth promotion
[25] = tested on: IGROV1; format: cell-based; settings: Homo sapiens, IGROV-1; IGROV1, single dose 10 μM; read-out: percent cell growth promotion

SMILES	activity at 10 µM [1] [%]	activity at 10 µM [2] [%]	activity at 10 µM [3] [%]	activity at 10 µM [4] [%]	activity at 10 µM [5] [%]	activity at 10 µM [6] [%]	activity at 10 µM [7] [%]	activity at 10 µM [8] [%]	activity at 10 µM [9] [%]	activity at 10 µM [10] [%]	activity at 10 µM [11] [%]	activity at 10 µM [12] [%]	activity at 10 µM [13] [%]	activity at 10 µM [14] [%]	activity at 10 µM [15] [%]	activity at 10 µM [16] [%]	activity at 10 µM [17] [%]	activity at 10 µM [18] [%]	activity at 10 µM [19] [%]	activity at 10 µM [20] [%]	also measured
Cc1nnc(Oc2ccc(NC(=O)Nc3ccc(Cl)cc3)cc2)c2ccccc12 [Compound 7e, 1–(4-Chlorophenyl)-3–(4-(4-methylphthalazin-1-yloxy)phenyl)urea]	57.7	52.9	92.6	45.8	39	80.1	84.9	69.5	83.9	72.5	40.2	70.2	60	88.3	55.6	95	78.2	79.1	71.1	83.9	activity at 10 µM [21]: 76.4%; activity at 10 µM [22]: 72%; activity at 10 µM [23]: 38.5%; activity at 10 µM [24]: 80.7%; activity at 10 µM [25]: 90.9%
CCOC(=O)N1CCN(c2nncc3ccccc23)CC1 [Compound 8a, Ethyl 4-(phthalazin-1-yl)piperazine-1-carboxylate]	104	108	109	103	92.6	108	105	105	106	99.1	96.9	103	99.3	116	101	102	105	110	107	95.8	activity at 10 µM [21]: 113%; activity at 10 µM [22]: 112%; activity at 10 µM [23]: 102%; activity at 10 µM [24]: 115%; activity at 10 µM [25]: 120%
c1ccc(N2CCN(c3nncc4ccccc34)CC2)nc1 [Compound 8d, 1–(4-(Pyridin-2-yl)piperazin-1-yl)phthalazine]	104	108	109	99.6	101	96.6	105	104	104	103	102	97.5	96.9	108	107	104	108	102	110	99	activity at 10 µM [21]: 109%; activity at 10 µM [22]: 104%; activity at 10 µM [23]: 103%; activity at 10 µM [24]: 115%; activity at 10 µM [25]: 116%
CCOC(=O)N1CCN(c2nnc(C)c3ccccc23)CC1 [Compound 8f, Ethyl 4–(4-methylphthalazin-1-yl)piperazine-1-carboxylate]	107	114	102	109	101	114	104	101	93.3	103	103	97.5	96	113	96.9	104	104	101	100	92.4	activity at 10 µM [21]: 106%; activity at 10 µM [22]: 66.7%; activity at 10 µM [23]: 101%; activity at 10 µM [24]: 107%; activity at 10 µM [25]: 109%
Cc1nnc(N2CCN(c3ccccc3)CC2)c2ccccc12 [Compound 8g, 1-Methyl-4–(4-phenylpiperazin-1-yl)phthalazine]	109	127	114	110	99.4	103	103	96.5	100	113	103	98.1	96.7	109	104	107	105	100	97.1	93	activity at 10 µM [21]: 105%; activity at 10 µM [22]: 75.5%; activity at 10 µM [23]: 107%; activity at 10 µM [24]: 100%; activity at 10 µM [25]: 112%

Reference: article PMC6691788, “Design and synthesis of phthalazine-based compounds as potent anticancer agents with potential antiangiogenic activity via VEGFR-2 inhibition” (Journal of Enzyme Inhibition and Medicinal Chemistry, 2019)
